Read-outs that look alike come from different tables or passages of the source.
Columns and labels:
phosphorylated MEK1 = phosphorylated MEK1 (Homo sapiens, UniProt Q02750); assay: MEK1 binding assay (HTRF, tracer displacement); details: for inhibition at 2 µM: read-out: % binding (2 µM); for inhibition at 20 µM: read-out: % binding (20 µM)
Description: The homogeneous time resolved fluorescence (HTRF) assay was performed on a Proxiplate-384 F plus solid back plate (Perkin Elmer, Waltham, MA. USA) with 5 nM GST tagged phosphorylated MEK1 (GST-MEK1), 2 nM europium-labeled anti-GST antibody (Eu-anti-GST), 20 nM kinase tracer 236 and test compound at a variety of concentrations. In the reaction mixture, GST-MEK1 forms a complex with the Eu-anti-GST and the tracer. Excitation of europium (the donor) using a 340-nm excitation filter results in energy transfer to the fluorophore of the tracer. This energy transfer is detected by an increase in the fluorescence emission of the tracer at 665 nm and a decrease in the fluorescence emission of europium at 615 nm. The FRET ratio was calculated by dividing the emission signal at 665 nm by the emission signal at 615 nm. A competitor compound such as a MEK inhibitor replaces the tracer from the complex and decreases the FRET ratio accordingly. The plate was incubated in dark at room temperature for 30 min before measuring the fluorescent emission of each well at 665 and 615 nm using a 340-nm excitation filter, 100-µs delay time, and 200-µs integration time, on a PHERAStar plate reader (BMG Labtech, Durham, NC, USA). […] Data shown as %Inhibition normalized to AZD6244 at 100 µM.

[1] = HTRF binding to GST tagged phosphorylated MEK1, read-out: IC50

phosphorylated MEK1, sequence (Q02750 whole entry): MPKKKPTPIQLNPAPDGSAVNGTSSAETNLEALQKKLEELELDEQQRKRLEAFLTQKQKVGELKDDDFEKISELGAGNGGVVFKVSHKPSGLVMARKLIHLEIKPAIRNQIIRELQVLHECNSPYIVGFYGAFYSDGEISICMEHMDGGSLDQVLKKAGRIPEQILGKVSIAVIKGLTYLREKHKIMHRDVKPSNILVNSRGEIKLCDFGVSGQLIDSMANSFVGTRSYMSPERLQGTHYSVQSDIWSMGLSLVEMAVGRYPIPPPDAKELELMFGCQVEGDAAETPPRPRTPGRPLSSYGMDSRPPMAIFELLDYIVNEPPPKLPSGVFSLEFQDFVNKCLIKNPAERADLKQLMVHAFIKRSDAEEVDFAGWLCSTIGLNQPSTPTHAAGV

Row | SMILES | inhibition at 2 µM (phosphorylated MEK1) | inhibition at 20 µM (phosphorylated MEK1) | melting point | IC50 (phosphorylated MEK1; [1]) | binding affinity (in words) (phosphorylated MEK1) | IC50 (phosphorylated MEK1)
1 | CCc1c(Cc2ccccc2)c(=O)oc2cc(OC(=O)c3ccccc3)ccc12 [Compound 64, 3-Benzyl-4-ethyl-2-oxo-2H-chromen-7-yl benzoate] | 10.1% | 21.5% | 138 °C |  |  | 
2 | COc1ccc2cc(Cc3ccc(F)cc3)c(=O)oc2c1 [Compound 84, 3-(4-Fluorobenzyl)-7-methoxy-2H-chromen-2-one] | 17.6% | 15.4% | 94 to 95 °C |  |  | 
3 | CCC(=O)Oc1ccc2c(C)c(Cc3ccccc3)c(=O)oc2c1 [Compound 35, 3-Benzyl-4-methyl-2-oxo-2H-chromen-7-yl propionate] | 64.5% | 85% | 118 to 119 °C | 1030 nM |  | 
4 | CCCc1c(Cc2ccc(F)cc2)c(=O)oc2cc(O)ccc12 [Compound 4h, 3-(4-Fluorobenzyl)-7-hydroxy-4-propyl-2H-chromen-2-one] | 20.9% | 20.4% | 130 to 131 °C |  |  | 
5 | CCc1c(Cc2ccc(F)cc2)c(=O)oc2cc(OC(=O)N(CC)CC)ccc12 [Compound 25, 4-Ethyl-3-(4-fluorobenzyl)-2-oxo-2H-chromen-7-yl diethylcarbamate] | 25.9% | 59.2% | 74 to 75 °C |  | active | 
6 | CCN(CC)C(=O)Oc1cc2oc(=O)c(Cc3ccccc3)c(C)c2cc1Cl [Compound 21, 3-Benzyl-6-chloro-4-methyl-2-oxo-2H-chromen-7-yl diethylcarbamate] | 27% | 48.1% | 83 to 84 °C |  |  | 
7 | CCCC(=O)Oc1ccc2c(CC)c(Cc3ccc(F)cc3)c(=O)oc2c1 [Compound 46, 4-Ethyl-3-(4-fluorobenzyl)-2-oxo-2H-chromen-7-yl butyrate] | 76.9% | 96.5% | 79 °C | 909 nM | active | 
8 | CCc1c(Cc2ccccc2)c(=O)oc2cc(OC(=O)N(CC)CC)ccc12 [Compound 22, 3-Benzyl-4-ethyl-2-oxo-2H-chromen-7-yl diethylcarbamate] | 6.63% | 48.1% | 64 to 65 °C |  |  | 
9 | Cc1ccc(S(=O)(=O)Oc2cc3oc(=O)c(Cc4ccccc4)c(C)c3cc2Cl)cc1 [Compound 77, 3-Benzyl-6-chloro-4-methyl-2-oxo-2H-chromen-7-yl 4-methylbenzenesulfonate] | 31.7% | 29.6% | 173 to 174 °C |  |  | 
10 | CCCc1c(Cc2ccccc2)c(=O)oc2cc(OC(C)=O)ccc12 [Compound 30, 3-Benzyl-2-oxo-4-propyl-2H-chromen-7-yl acetate] | 15.5% | 25.6% | 139 to 140 °C |  |  | 
11 | CCCC(=O)Oc1ccc2c(C)c(Cc3ccc(F)cc3)c(=O)oc2c1 [Compound 45, 3-(4-Fluorobenzyl)-4-methyl-2-oxo-2H-chromen-7-yl butyrate] | 45.3% | 72.3% | 85 to 86 °C | 824 nM |  | 
12 | O=c1cc(CO)c2ccc(O)cc2o1 [Compound 4j, 7-Hydroxy-4-(hydroxymethyl)-2H-chromen-2-one] | 36.3% | 33.6% | 148 to 149 °C |  |  | 
13 | CCCc1c(Cc2ccccc2)c(=O)oc2cc(O)ccc12 [Compound 4e, 3-Benzyl-7-hydroxy-4-propyl-2H-chromen-2-one] | 29.1% | 7.06% | 139 to 140 °C |  |  | 
14 | CCCC(=O)Oc1ccc2c(CCC)c(Cc3ccc(F)cc3)c(=O)oc2c1 [Compound 47, 3-(4-Fluorobenzyl)-2-oxo-4-propyl-2H-chromen-7-yl butyrate] | 57% | 70.3% | 88 to 90 °C | 944 nM |  | 
15 | CCc1c(Cc2ccc(F)cc2)c(=O)oc2cc(OC(C)=O)ccc12 [Compound 32, 4-Ethyl-3-(4-fluorobenzyl)-2-oxo-2H-chromen-7-yl acetate] | 94.6% | 101% | 122 to 123 °C | 91.2 nM | active | 
16 | COc1ccc2c(C#N)c(C(=O)c3ccccc3)c(=O)oc2c1 [Compound 88, 3-Benzoyl-4-cyano-7-methoxycoumarin] | 32.4% | 22.9% | 175 to 176 °C |  |  | 
17 | CCCCC(=O)Oc1cc2oc(=O)c(Cc3ccccc3)c(C)c2cc1Cl [Compound 49, 3-Benzyl-6-chloro-4-methyl-2-oxo-2H-chromen-7-yl pentanoate] | 8.15% | 20.3% | 108 to 109 °C |  |  | 
18 | CCc1c(Cc2ccccc2)c(=O)oc2cc(OC(=O)N(C)C)ccc12 [Compound 15, 3-Benzyl-4-ethyl-2-oxo-2H-chromen-7-yl dimethylcarbamate] | 85% | 92.8% | 85 to 86 °C |  |  | 163 nM
19 | Cc1c(Cc2ccc(F)cc2)c(=O)oc2cc(OC(=O)C(C)(C)C)ccc12 [Compound 60, 3-(4-Fluorobenzyl)-4-methyl-2-oxo-2H-chromen-7-yl pivalate] | 23.7% | 20.3% | 136 to 138 °C |  |  | 
20 | CCCCC(=O)Oc1ccc2c(CCC)c(Cc3ccc(F)cc3)c(=O)oc2c1 [Compound 54, 3-(4-Fluorobenzyl)-2-oxo-4-propyl-2H-chromen-7-yl pentanoate] | 11.7% | 23.9% | 68 to 70 °C |  |  | 
21 | CCCCC(=O)Oc1ccc2c(CC)c(Cc3ccc(F)cc3)c(=O)oc2c1 [Compound 52, 4-Ethyl-3-(4-fluorobenzyl)-2-oxo-2H-chromen-7-yl pentanoate] | 42.8% | 34% | 70 to 71 °C |  | inactive | 
22 | CCCc1c(Cc2ccc(F)cc2)c(=O)oc2cc(OC(=O)C(C)(C)C)ccc12 [Compound 61, 3-(4-Fluorobenzyl)-2-oxo-4-propyl-2H-chromen-7-yl pivalate] | 31.6% | 40.9% | 138 to 140 °C |  |  | 
23 | CCc1c(Cc2ccccc2)c(=O)oc2cc(O)ccc12 [Compound 4d, 3-Benzyl-4-ethyl-7-hydroxy-2H-chromen-2-one] | 27% | 10.4% | 140 to 141 °C |  |  | 
24 | CCCC(=O)Oc1ccc2c(CCC)c(Cc3ccccc3)c(=O)oc2c1 [Compound 44, 3-Benzyl-2-oxo-4-propyl-2H-chromen-7-yl butyrate] | 14% | 38.9% | 105 to 106 °C |  |  | 
25 | Cc1c(Cc2ccccc2)c(=O)oc2cc(OC(=O)C(C)(C)C)c(Cl)cc12 [Compound 56, 3-Benzyl-6-chloro-4-methyl-2-oxo-2H-chromen-7-yl pivalate] | 16.6% | 34.1% | 113 °C |  |  | 
26 | CCCCC(=O)Oc1ccc2c(C)c(Cc3ccc(F)cc3)c(=O)oc2c1 [Compound 53, 3-(4-Fluorobenzyl)-4-methyl-2-oxo-2H-chromen-7-yl pentanoate] | 34.7% | 38.3% | 83 to 84 °C |  |  | 
27 | CCCCC(=O)Oc1ccc2c(CC)c(Cc3ccccc3)c(=O)oc2c1 [Compound 50, 3-Benzyl-4-ethyl-2-oxo-2H-chromen-7-yl pentanoate] | 37.2% | 43.2% | 72 to 73 °C |  |  | 
28 | Cc1ccc(S(=O)(=O)Oc2ccc3c(C)c(Cc4ccc(F)cc4)c(=O)oc3c2)cc1 [Compound 81, 3-(4-Fluorobenzyl)-4-methyl-2-oxo-2H-chromen-7-yl 4-methylbenzenesulfonate] | 8.05% | 9.55% | 95 to 96 °C |  |  | 
29 | COc1ccc2c(C(=O)O)c(C(=O)c3ccccc3)c(=O)oc2c1 [Compound 89, 3-Benzoyl-4-carboxy-7-methoxycoumarin] | 16.5% | 6.34% | 196 to 197 °C |  |  | 

— PMC6269873, “Substituted 3-Benzylcoumarins as Allosteric MEK1 Inhibitors: Design, Synthesis and Biological Evaluation as Antiviral Agents” (Molecules, 2013)
